{"source": "patent US20090202630A1", "about": "“ORALLY DISINTEGRATING TABLET COMPOSITIONS OF RANITIDINE AND METHODS OF MANUFACTURE” (priority 2008, published 2009)", "origin": "cited, not measured here", "note": "Where a name gives a salt, the structure may show the parent alone."}
{"smiles": "CNC(=C[N+](=O)[O-])NCCSCc1ccc(CN(C)C)o1", "note": "[Ranitidine hydrochloride]", "values": [{"measurement": "solubility in water (in words)", "value": "freely soluble"}]}
